How the values were obtained:
[1] = target: Human cGAS amino acids 155-522 (Homo sapiens (Human), UniProt Q8N884); assay: cGAS biochemical activity assay (ATP remaining, Kinase-Glo Max luminescence); conditions: human cGAS 155-522, ATP remaining (Kinase-Glo Max); read-out: cGAS IC50
[2] = test system: cGAS/STING pathway in THP1 cells; assay: THP1 cell-based cGAS/STING pathway activity assay (IRF-3-linked luciferase reporter); conditions: Homo sapiens, THP-1
In short: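 THP1 cells carrying an IRF-3-driven luciferase reporter were read across a range of compound concentrations, and IC50 values were derived from these concentration responses; the assay upper limit was 100 μM.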

Sequence of Human cGAS amino acids 155-522 (Q8N884 157-522): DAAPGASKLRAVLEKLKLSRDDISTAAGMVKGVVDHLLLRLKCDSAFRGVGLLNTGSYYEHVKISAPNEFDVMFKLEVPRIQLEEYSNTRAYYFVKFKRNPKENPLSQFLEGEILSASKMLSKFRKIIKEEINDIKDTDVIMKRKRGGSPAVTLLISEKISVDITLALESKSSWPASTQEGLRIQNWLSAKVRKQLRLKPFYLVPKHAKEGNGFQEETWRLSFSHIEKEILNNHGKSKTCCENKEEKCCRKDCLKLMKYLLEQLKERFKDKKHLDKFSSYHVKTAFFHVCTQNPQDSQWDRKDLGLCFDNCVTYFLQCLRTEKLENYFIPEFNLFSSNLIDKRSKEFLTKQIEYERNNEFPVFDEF

Row | SMILES | IC50 [1] | IC50 [2]
1 | COc1cccc2oc(-c3c(C(=O)Nc4ccn(C)n4)[nH]c4c(-c5ccccc5)c(C(F)(F)F)nn4c3=O)nc12 [Compound C1256, 6-(4-methoxybenzo[d]oxazol-2-yl)-N-(1-methyl-1H-pyrazol-3-yl)-7-oxo-3-phenyl-2-(trifluoromethyl)-4,7-dihydropyrazolo[1,5-a]pyrimidine-5-carboxamide] | < 20 µM | > 100 µM
2 | COc1cccc2c(-c3c(C)[nH]c4c(-c5ccccc5)c(C(F)(F)F)nn4c3=O)n[nH]c12 [Compound C1026, 6-(7-methoxy-1H-indazol-3-yl)-5-methyl-3-phenyl-2-(trifluoromethyl)pyrazolo[1,5-a]pyrimidin-7(4H)-one] | 20 to 250 µM | < 20 µM
3 | COc1cc(C(N)=O)cc2oc(-c3c(C)[nH]c4c(-c5ccccc5)c(C(F)(F)F)nn4c3=O)nc12 [Compound C1149, 4-methoxy-2-(5-methyl-7-oxo-3-phenyl-2-(trifluoromethyl)-4,7-dihydropyrazolo[1,5-a]pyrimidin-6-yl)benzo[d]oxazole-6-carboxamide] | < 20 µM | 20 to 100 µM
4 | COc1ccc(NC(=O)c2c(C)[nH]c3c(-c4ccccc4)c(C(F)(F)F)nn3c2=O)cn1 [Compound A1088, N-(6-methoxypyridin-3-yl)-5-methyl-7-oxo-3-phenyl-2-(trifluoromethyl)-4,7-dihydropyrazolo[1,5-a]pyrimidine-6-carboxamide] | 20 to 250 µM | 20 to 100 µM
5 | COCc1ccccc1NC(=O)c1c(C)[nH]c2c(-c3ccccc3)c(C(F)(F)F)nn2c1=O [Compound A1072, N-(2-(methoxymethyl)phenyl)-5-methyl-7-oxo-3-phenyl-2-(trifluoromethyl)-4,7-dihydropyrazolo[1,5-a]pyrimidine-6-carboxamide] | 20 to 250 µM | 20 to 100 µM
6 | Cc1[nH]c2c(-c3ccccc3)c(C(F)(F)F)nn2c(=O)c1-c1nc2ncccc2o1 [Compound C1030, 5-methyl-6-(oxazolo[4,5-b]pyridin-2-yl)-3-phenyl-2-(trifluoromethyl)pyrazolo[1,5-a]pyrimidin-7(4H)-one] | < 20 µM | > 100 µM
7 | COc1cccc2oc(-c3c(COC4COC4)[nH]c4c(-c5ccccc5)c(C#N)nn4c3=O)nc12 [Compound C1259, 6-(4-methoxybenzo[d]oxazol-2-yl)-5-((oxetan-3-yloxy)methyl)-7-oxo-3-phenyl-4,7-dihydropyrazolo[1,5-a]pyrimidine-2-carbonitrile] | < 20 µM | > 100 µM
8 | COc1cccc2oc(-c3c(N)[nH]c4c(-c5ccccc5)c(C(F)(F)F)nn4c3=O)nc12 [Compound C1085, 5-amino-6-(4-methoxybenzo[d]oxazol-2-yl)-3-phenyl-2-(trifluoromethyl)pyrazolo[1,5-a]pyrimidin-7(4H)-one] | < 20 µM | > 100 µM
9 | COc1cc(CO)cc2oc(-c3c(C)[nH]c4c(-c5ccccc5)c(C(F)(F)F)nn4c3=O)nc12 [Compound C1166, 6-(6-(hydroxymethyl)-4-methoxybenzo[d]oxazol-2-yl)-5-methyl-3-phenyl-2-(trifluoromethyl)pyrazolo[1,5-a]pyrimidin-7(4H)-one] | < 20 µM | 20 to 100 µM
10 | COC1CCCN(c2nnc(-c3c(C)[nH]c4c(-c5ccccc5)c(C(F)(F)F)nn4c3=O)o2)C1 (centres unmarked) [Compound D1027, 6-(5-(3-methoxypiperidin-1-yl)-1,3,4-oxadiazol-2-yl)-5-methyl-3-phenyl-2-(trifluoromethyl)pyrazolo[1,5-a]pyrimidin-7(4H)-one] | < 20 µM | > 100 µM
11 | COc1ccc(S(C)(=O)=O)c2oc(-c3c(C)[nH]c4c(-c5ccccc5)c(C(F)(F)F)nn4c3=O)nc12 [Compound C1125, 6-(4-methoxy-7-(methylsulfonyl)benzo[d]oxazol-2-yl)-5-methyl-3-phenyl-2-(trifluoromethyl)pyrazolo[1,5-a]pyrimidin-7(4H)-one] | < 20 µM | 20 to 100 µM
12 | Cc1[nH]c2c(-c3ccccc3)c(C(F)(F)F)nn2c(=O)c1-c1nnc(C2CCCOC2)o1 (centres unmarked) [Compound D1015, 5-methyl-3-phenyl-6-(5-(tetrahydro-2H-pyran-3-yl)-1,3,4-oxadiazol-2-yl)-2-(trifluoromethyl)pyrazolo[1,5-a]pyrimidin-7(4H)-one] | 20 to 250 µM | > 100 µM
13 | COCCn1ccc(NC(=O)c2c(C)[nH]c3c(-c4ccccc4)c(C(F)(F)F)nn3c2=O)n1 [Compound A1115, N-(1-(2-methoxyethyl)-1H-pyrazol-3-yl)-5-methyl-7-oxo-3-phenyl-2-(trifluoromethyl)-4,7-dihydropyrazolo[1,5-a]pyrimidine-6-carboxamide] | 20 to 250 µM | > 100 µM

Other lines, results leading:

Row | IC50 [1] | IC50 [2] | SMILES
14 | < 20 µM | > 100 µM | Cc1[nH]c2c(-c3ccccc3)c(C(F)(F)F)nn2c(=O)c1-c1nnc(-c2nccc(O)n2)o1 [Compound D1078, 6-(5-(4-hydroxypyrimidin-2-yl)-1,3,4-oxadiazol-2-yl)-5-methyl-3-phenyl-2-(trifluoromethyl)pyrazolo[1,5-a]pyrimidin-7(4H)-one]
15 | < 20 µM | 20 to 100 µM | Cc1[nH]c2c(-c3ccccc3)c(C(F)(F)F)nn2c(=O)c1-c1nc2c(OCC(N)=O)cccc2o1 [Compound C1122, 2-((2-(5-methyl-7-oxo-3-phenyl-2-(trifluoromethyl)-4,7-dihydropyrazolo[1,5-a]pyrimidin-6-yl)benzo[d]oxazol-4-yl)oxy)acetamide]
16 | < 20 µM | > 100 µM | C#Cc1nn2c(=O)c(-c3nc4c(OC)cccc4o3)c(C)[nH]c2c1-c1ccccc1 [Compound C1211, 2-ethynyl-6-(4-methoxybenzo[d]oxazol-2-yl)-5-methyl-3-phenylpyrazolo[1,5-a]pyrimidin-7(4H)-one]
17 | < 20 µM | < 20 µM | CCc1[nH]c2c(-c3ccccc3)c(C(F)(F)F)nn2c(=O)c1-c1nc2c(OC)cccc2o1 [Compound C1183, 5-ethyl-6-(4-methoxybenzo[d]oxazol-2-yl)-3-phenyl-2-(trifluoromethyl)pyrazolo[1,5-a]pyrimidin-7(4H)-one]
18 | < 20 µM | > 100 µM | Cc1nn2c(=O)c(C(=O)Nc3ccccc3S(C)(=O)=O)c(C)[nH]c2c1-c1ccccc1 [Compound A1106, 2,5-dimethyl-N-(2-(methylsulfonyl)phenyl)-7-oxo-3-phenyl-4,7-dihydropyrazolo[1,5-a]pyrimidine-6-carboxamide]
19 | < 20 µM | > 100 µM | Cc1[nH]c2c(-c3ccccc3)c(C(F)(F)F)nn2c(=O)c1-c1nnc(C2CCCCN2S(C)(=O)=O)o1 (centres unmarked) [Compound D1056, 5-methyl-6-(5-(1-(methylsulfonyl)piperidin-2-yl)-1,3,4-oxadiazol-2-yl)-3-phenyl-2-(trifluoromethyl)pyrazolo[1,5-a]pyrimidin-7(4H)-one]
20 | < 20 µM | 20 to 100 µM | Cc1[nH]c2c(-c3ccccc3)c(C#N)nn2c(=O)c1-c1nc2ccccc2o1 [Compound C1222, 6-(benzo[d]oxazol-2-yl)-5-methyl-7-oxo-3-phenyl-4,7-dihydropyrazolo[1,5-a]pyrimidine-2-carbonitrile]
21 | < 20 µM | > 100 µM | Cc1[nH]c2c(-c3ccccc3)c(C(F)(F)F)nn2c(=O)c1-c1nnc(C2CCOCC2)o1 [Compound D1016, 5-methyl-3-phenyl-6-(5-(tetrahydro-2H-pyran-4-yl)-1,3,4-oxadiazol-2-yl)-2-(trifluoromethyl)pyrazolo[1,5-a]pyrimidin-7(4H)-one]
22 | < 20 µM | < 20 µM | COc1cccc2sc(-c3c(C)[nH]c4c(-c5ccccc5)c(C(F)(F)F)nn4c3=O)nc12 [Compound C1070, 6-(4-methoxybenzo[d]thiazol-2-yl)-5-methyl-3-phenyl-2-(trifluoromethyl)pyrazolo[1,5-a]pyrimidin-7(4H)-one]
23 | 20 to 250 µM | > 100 µM | Cc1nnc(-c2c(C)[nH]c3c(-c4ccccc4)c(C(F)(F)F)nn3c2=O)[nH]1 [Compound C1020, 5-methyl-6-(5-methyl-4H-1,2,4-triazol-3-yl)-3-phenyl-2-(trifluoromethyl)pyrazolo[1,5-a]pyrimidin-7(4H)-one]
24 | < 20 µM | > 100 µM | COc1cccc2oc(-c3c(C4CC(C(=O)O)C4)[nH]c4c(-c5ccccc5)c(C(F)(F)F)nn4c3=O)nc12 (centres unmarked) [Compound C1252, 3-(6-(4-methoxybenzo[d]oxazol-2-yl)-7-oxo-3-phenyl-2-(trifluoromethyl)-4,7-dihydropyrazolo[1,5-a]pyrimidin-5-yl)cyclobutane-1-carboxylic acid]
25 | < 20 µM | > 100 µM | Cc1[nH]c2c(-c3ccccc3)c(C(F)(F)F)nn2c(=O)c1C(=O)Nc1ccccc1N [Compound A1006, N-(2-aminophenyl)-5-methyl-7-oxo-3-phenyl-2-(trifluoromethyl)-4,7-dihydropyrazolo[1,5-a]pyrimidine-6-carboxamide]
26 | < 20 µM | > 100 µM | Cc1[nH]c2c(-c3ccccc3)c(C(F)(F)F)nn2c(=O)c1-c1nc(C(=O)O)co1 [Compound C1165, 2-(5-methyl-7-oxo-3-phenyl-2-(trifluoromethyl)-4,7-dihydropyrazolo[1,5-a]pyrimidin-6-yl)oxazole-4-carboxylic acid]
27 | < 20 µM | 20 to 100 µM | Cc1[nH]c2c(-c3ccccc3)c(C(F)(F)F)nn2c(=O)c1C(=O)Nc1cccc(S(C)(=O)=O)c1 [Compound A1084, 5-methyl-N-(3-(methylsulfonyl)phenyl)-7-oxo-3-phenyl-2-(trifluoromethyl)-4,7-dihydropyrazolo[1,5-a]pyrimidine-6-carboxamide]
28 | 20 to 250 µM | < 20 µM | Cc1[nH]c2c(-c3ccccc3)c(C(F)(F)F)nn2c(=O)c1-c1nc2ccccc2n1CC(F)(F)F [Compound C1231, 5-methyl-3-phenyl-6-(1-(2,2,2-trifluoroethyl)-1H-benzo[d]imidazol-2-yl)-2-(trifluoromethyl)pyrazolo[1,5-a]pyrimidin-7(4H)-one]

Source: US10738056B2 (Aduro BioTech, Inc., priority 2017, dated 2020)
